The assay concerns HSP72 in U2OS cells. Kind of assay: Cell-based ELISA (Cellisa) assay, U2OS cells: inhibition of 17-AAG-induced HSP72. To be noted: Homo sapiens; U2OS cells (Examples 1-168). The protocol: U2OS cells (5-8×10^4 cells/mL) or SK-OV-3 cells (5-8×10^4 cells/mL) were seeded into 96-well plates and incubated at 37° C. for 48 h. Compounds were then added at a range of concentrations and incubated for 1 h before addition of 17-AAG (250 nM). Cells were then incubated for 18 h. The medium was removed washed 2× with PBS and cells were then fixed with fixing solution (4% paraformaldehyde, 0.3% TritonX-100 in PBS) for 30 min at 4° C. The plates were then washed 2× with PBS before blocking with 5% milk for 30 min at 37° C. After washing the plates 4× with 0.1% Tween-20/deionised water, HSP72 antibody (SPA-810, Enzo Life) was added for 1.5 h at 37° C. Following 4× washes, the plates were incubated with europium-labelled anti-mouse antibody (0.6 ug/ml) in Delfia assay buffer (Perkin Elmer) for 1 h at 37° C. After washing the plates, Delfia enhancement solution was added, shaken for 10 min before reading in the Envision plate reader (Perkin-Elmer) with excitation at 340 nm and emission at 615 nm. The plates were washed again before protein determination using the bicinchoninic acid assay (BCA assay, Pierce Biotechnology). The europium counts were normalised for the amount of protein in each well. The 50% inhibitory concentration value of the compound was then calculated.
(An ELISA detects its analyte on a solid surface through an enzyme-linked reagent.)

Structures are written as SMILES.

As a reminder, the IC50 is the point on the concentration scale where inhibition reaches its midpoint. A lower IC50 goes with inhibition by little substance. Consider `Cc1ccc(NC(=O)c2ccc3c(c2)OCCO3)cc1NC(=O)c1ccc2ncccc2c1` [Example 1, N-(5-(2,3-dihydrobenzo[b][1,4]dioxine-6-carboxamido)-2-methylphenyl)quinoline-6-carboxamide], for which the IC50 turned out to be 5 nM. The result for `Cc1ccc(NC(=O)c2ccc3c(c2)OCCO3)cc1NC(=O)c1ccc2ccncc2c1` [Example 2, N-(5-(2,3-dihydrobenzo[b][1,4]dioxine-6-carboxamido)-2-methylphenyl)isoquinoline-7-carboxamide] reads 7 nM; that for `Cc1ccc(NC(=O)c2ccc3c(c2)OCCO3)cc1NC(=O)c1ccc2nc(Cl)ccc2c1` [Example 12, 2-chloro-N-(5-(2,3-dihydrobenzo[b][1,4]dioxine-6-carboxamido)-2-methylphenyl)quinoline-6-carboxamide], 51 nM; that for `Cc1ccc(NC(=O)c2ccc3c(c2)OCCO3)cc1NC(=O)c1ccc(OCc2cncs2)cc1` [Example 20, N-(4-methyl-3-(4-(thiazol-5-ylmethoxy)benzamido)phenyl)-2,3-dihydrobenzo[b][1,4]dioxine-6-carboxamide], 1480 nM. `COCCOc1cc(OC)c2cc(C(=O)Nc3cc(NC(=O)c4ccc5c(c4)OCCO5)ccc3C)ccc2n1` [Example 22, N-(5-(2,3-dihydrobenzo[b][1,4]dioxine-6-carboxamido)-2-methylphenyl)-4-methoxy-2-(2-methoxyethoxy)quinoline-6-carboxamide] had an IC50 of 160 nM.

The compound `Cc1ccc(NC(=O)c2ccc3c(c2)OCCO3)cc1NC(=O)c1ccc2c(ccc[n+]2[O-])c1` [Example 23, 6-((5-(2,3-dihydrobenzo[b][1,4]dioxine-6-carboxamido)-2-methylphenyl)carbamoyl)quinoline 1-oxide] displayed an IC50 of 161 nM.

In turn, `Cc1ccc(NC(=O)c2ccc3c(c2)OCCO3)cc1NC(=O)c1ccc2c(c1)CCN2C(=O)OC(C)(C)C` [Example 30, tert-butyl 5-((5-(2,3-dihydrobenzo[b][1,4]dioxine-6-carboxamido)-2-methylphenyl)carbamoyl)indoline-1-carboxylate] yielded an IC50 of 507 nM. In turn, `Cc1ccc(NC(=O)c2ccc3c(c2)OCCO3)cc1NC(=O)c1ccc2c(c1)CCN(C(=O)OC(C)(C)C)C2` [Example 31, tert-butyl 6-((5-(2,3-dihydrobenzo[b][1,4]dioxine-6-carboxamido)-2-methylphenyl)carbamoyl)-3,4-dihydroisoquinoline-2(1H)-carboxylate] came in with an IC50 of 545 nM. Compound `Cc1ccc(NC(=O)c2ccc3c(c2)OCCO3)cc1NC(=O)c1ccc2nc(N3CCOCC3)ccc2c1` [Example 32, N-(5-(2,3-dihydrobenzo[b][1,4]dioxine-6-carboxamido)-2-methylphenyl)-2-morpholinoquinoline-6-carboxamide] came in with an IC50 of 665 nM. As to `Cc1ccc(NC(=O)c2ccc3c(c2)OCCO3)cc1NC(=O)c1ccc(-c2ccccc2)nc1` [Example 37, N-(5-(2,3-dihydrobenzo[b][1,4]dioxine-6-carboxamido)-2-methylphenyl)-6-phenylnicotinamide], inhibition was half-maximal at 1960 nM (IC50).

Turning to `Cc1ccc(NC(=O)c2ccc3c(c2)OCCO3)cc1NC(=O)c1ccc(Nc2cccc(I)c2)nc1` [Example 38, N-(5-(2,3-dihydrobenzo[b][1,4]dioxine-6-carboxamido)-2-methylphenyl)-6-((3-iodophenyl)amino)nicotinamide], the midpoint of inhibition, the IC50, lay at 41 nM. Compound `COc1cccc(C(=O)Nc2cc(NC(=O)c3ccc4c(c3)OCCO4)ccc2C)c1` [Example 40, N-(3-(3-methoxybenzamido)-4-methylphenyl)-2,3-dihydrobenzo[b][1,4]dioxine-6-carboxamide] yielded an IC50 of 1160 nM. `Cc1ccc(NC(=O)c2ccc3c(c2)OCCO3)cc1NC(=O)c1ccc2nc(N3CCN(C)CC3)ccc2c1` [Example 74, N-(5-(2,3-dihydrobenzo[b][1,4]dioxine-6-carboxamido)-2-methylphenyl)-2-(4-methylpiperazin-1-yl)quinoline-6-carboxamide] registered an IC50 of 232 nM.

`CCc1ccc2cc(C(=O)Nc3cc(NC(=O)c4ccc5c(c4)OCCO5)ccc3C)ccc2n1` [Example 77, N-(5-(2,3-dihydrobenzo[b][1,4]dioxine-6-carboxamido)-2-methylphenyl)-2-ethylquinoline-6-carboxamide] displayed an IC50 of 26 nM.

Compound `CCC(=O)NCCOc1ccc2cc(C(=O)Nc3cc(NC(=O)c4ccc5c(c4)OCCO5)ccc3C)ccc2n1` [Example 81, N-(5-(2,3-dihydrobenzo[b][1,4]dioxine-6-carboxamido)-2-methylphenyl)-2-(2-propionamidoethoxy)quinoline-6-carboxamide] returned an IC50 of 100 nM.

In turn, `Cc1ccc(NC(=O)c2ccc3c(c2)OCCO3)cc1NC(=O)c1ccc2c(c1)CCCCN2` [Example 82, N-(5-(2,3-dihydrobenzo[b][1,4]dioxine-6-carboxamido)-2-methylphenyl)-2,3,4,5-tetrahydro-1H-benzo[b]azepine-7-carboxamide] registered a concentration for half-maximal inhibition (IC50) of 156 nM. With `CCC(=O)NCCNc1ccc2cc(C(=O)Nc3cc(NC(=O)c4ccc5c(c4)OCCO5)ccc3C)ccc2n1` [Example 83, N-(5-(2,3-dihydrobenzo[b][1,4]dioxine-6-carboxamido)-2-methylphenyl)-2-((2-propionamidoethyl)amino)quinoline-6-carboxamide], 161 nM corresponded to half-maximal inhibition (IC50). The result for `Cc1ccc(NC(=O)c2ccc3c(c2)OCCO3)cc1NC(=O)c1ccc2c(c1)CCC(CN(C)C(=O)OC(C)(C)C)N2` (centres unmarked) [Example 85, tert-butyl ((6-((5-(2,3-dihydrobenzo[b][1,4]dioxine-6-carboxamido)-2-methylphenyl)carbamoyl)-1,2,3,4-tetrahydroquinolin-2-yl)methyl)(methyl)carbamate] reads 1140 nM. Compound `CNCC1CCc2cc(C(=O)Nc3cc(NC(=O)c4ccc5c(c4)OCCO5)ccc3C)ccc2N1` (centres unmarked) [Example 86, N-(5-(2,3-dihydrobenzo[b][1,4]dioxine-6-carboxamido)-2-methylphenyl)-2-((methylamino)methyl)-1,2,3,4-tetrahydroquinoline-6-carboxamide] showed an IC50 of 195 nM. The result for `Cc1ccc(NC(=O)c2ccc3c(c2)OCCO3)cc1NC(=O)c1ccc2c(c1)CCNC2` [Example 88, N-(5-(2,3-dihydrobenzo[b][1,4]dioxine-6-carboxamido)-2-methylphenyl)-1,2,3,4-tetrahydroisoquinoline-6-carboxamide] reads 770 nM. For `Cc1ccc(NC(=O)c2ccc3c(c2)OCCO3)cc1NC(=O)c1ccc(Nc2ccccc2)nc1` [Example 94, N-(5-(2,3-dihydrobenzo[b][1,4]dioxine-6-carboxamido)-2-methylphenyl)-6-(phenylamino)nicotinamide], it took 73 nM to reach half-maximal inhibition (IC50).

For the compound `Cc1ccc(NC(=O)c2ccc3c(c2)OCCO3)cc1NC(=O)c1ccnc(N2CCOCC2)c1` [Example 98, N-(5-(2,3-dihydrobenzo[b][1,4]dioxine-6-carboxamido)-2-methylphenyl)-2-morpholinoisonicotinamide], the IC50 was 2660 nM.

The compound `CCNc1ccc(C(=O)Nc2cc(NC(=O)c3ccc4c(c3)OCCO4)ccc2C)cn1` [Example 102, N-(5-(2,3-dihydrobenzo[b][1,4]dioxine-6-carboxamido)-2-methylphenyl)-6-(ethylamino)nicotinamide] showed an IC50 of 835 nM.

`Cc1ccc(NC(=O)c2ccc3c(c2)OCCO3)cc1NC(=O)c1ccc(N)nc1` [Example 104, 6-amino-N-(5-(2,3-dihydrobenzo[b][1,4]dioxine-6-carboxamido)-2-methylphenyl)nicotinamide] gave an IC50 of 482 nM. The result for `Cc1ccc2cc(C(=O)Nc3cc(NC(=O)c4ccc5c(c4)OCCO5)ccc3C)ccc2c1` [Example 108, N-(4-methyl-3-(6-methyl-2-naphthamido)phenyl)-2,3-dihydrobenzo[b][1,4]dioxine-6-carboxamide] reads 483 nM; that for `Cc1cc(NCCCN(C)C)c2cc(C(=O)Nc3cc(NC(=O)c4ccc5c(c4)OCCO5)ccc3C)ccc2n1` [Example 111, N-(5-(2,3-dihydrobenzo[b][1,4]dioxine-6-carboxamido)-2-methylphenyl)-4-(3-(dimethylamino)propylamino)-2-methylquinoline-6-carboxamide], 1840 nM. With `Cc1ccc(NC(=O)c2ccc3c(c2)OCCO3)cc1NC(=O)c1ccc2ncsc2c1` [Example 114, N-(5-(2,3-dihydrobenzo[b][1,4]dioxine-6-carboxamido)-2-methylphenyl)benzo[d]thiazole-6-carboxamide], the IC50 came out at 35 nM.

In turn, `Cc1cc(NCCN2CCCC2)c2cc(C(=O)Nc3cc(NC(=O)c4ccc5c(c4)OCCO5)ccc3C)ccc2n1` [Example 117, N-(5-(2,3-dihydrobenzo[b][1,4]dioxine-6-carboxamido)-2-methylphenyl)-2-methyl-4-(2-(pyrrolidin-1-yl)ethylamino)quinoline-6-carboxamide] registered an IC50 of 635 nM.

Compound `Cc1cc(NCCN2CCOCC2)c2cc(C(=O)Nc3cc(NC(=O)c4ccc5c(c4)OCCO5)ccc3C)ccc2n1` [Example 118, N-(5-(2,3-dihydrobenzo[b][1,4]dioxine-6-carboxamido)-2-methylphenyl)-2-methyl-4-(2-morpholinoethylamino)quinoline-6-carboxamide] yielded a 50% inhibitory concentration (IC50) of 618 nM.
